We go through one compound from paper PMC7156724, “Potent BRD4 inhibitor suppresses cancer cell-macrophage interaction” (Nature Communications, 2020).

Several values for one entry are separate records, joined by “and”; a condition that tells them apart may be missing. Equal entries are not always repeated.

One test relates to HIF1A mRNA. Kind of test: RT-qPCR of HIF1A in A375 or A2780 cells. Type of test: cell-based, human. On the procedure: Fig. 7 NHWD-870 inhibited CSF1 expression through suppressing BRD4 and HIF1α in tumor cells. a, b Representative western blot analysis of control (Ctrl) and BRD4 knockout (KO) A375 and A2780 cells exposed to 20% or 1% O2 for 24 hours. Selected from three independent experiments. c, d Representative western blot analysis of A375 and A2780 cells treated with DMSO or 25 nM NHWD-870 and exposed to 20% or 1% O2 for 24 h. Selected from three independent experiments. e Relative HIF1 luciferase reporter activity in control (Ctrl), BRD4 knockout (KO), or NHWD-870 treated A375 and A2780 cells exposed to 20% or 1% O2 for 24 h. Data are presented as mean ± SEM from three independent experiments. f RT-qPCR analyses of CSF1 in control (Ctrl), BRD4 knockout (KO), or NHWD-870 treated A375 and A2780 cells exposed to 20% or 1% O2 for 24 hours. Data are presented as mean ± SEM from three independent experiments. g RT-qPCR analyses of HIF1A in A375 or A2780 cells treated with 15 nM NHWD-870 or DMSO control for 24 h. Data are presented as mean ± SEM from three independent experiments. h Genome browser view of BRD4 ChIP-seq peaks on the HIF1A promoter. […] NHWD-870 inhibits the proliferation and survival of TAMs partly by inhibiting BRD4 activity, HIF1α expression, and CSF1 secretion by tumor cells, and downregulating CSF1R mediated ERK and PI3K/AKT signaling in TAMs. p values were calculated using two-tailed, unpaired t tests in this figure. *p < 0.05; **p < 0.01; ***p < 0.001. […]
Total RNA was extracted with RNeasy plus mini kit (Qiagen), and then cDNA was synthesized by iScript™ cDNA Synthesis Kit (Bio-Rad). qPCR was performed using a CFX96 Real-time PCR Instrument (BioRad). Data were collected using CFX Manager version 3.1.1517.823 and analyzed using Microsoft Excel 2010. Relative expression levels were determined by normalization to human GAPDH using the ∆∆Ct method. […]
A general note: Real-time PCR tracks product formation cycle by cycle.

The next test concerns ES-2 cells. Briefly: Clonogenic (colony formation) assay, ES-2. Particulars: ES-2, 250 nM, 5 days. Type of test: cell-based, human. On the procedure: Fig. 2 NHWD-870 inhibited BRD4 phosphorylation and c-MYC expression, and suppressed cell growth. a Representative western blot analysis of p-BRD4 (s484/488), BRD4, c-MYC, and GAPDH after treatment of MDA-MB231, SUM159, A2780 ES-2, and H526 cells with JQ-1 or NHWD-870 at the indicated concentrations for 24 h. GAPDH served as the loading control. Selected from three independent experiments. b MTT assays of H526, A2780, ES-2, and MDA-MB231 cells treated with JQ-1 or NHWD-870 at the indicated concentrations for 5 days. Data are presented as mean ± SEM from three independent experiments. c, d Clonogenic assays of H526, A2780, ES-2 and MDA-MB231 cells treated with 250 nM JQ-1 or NHWD-870 for 5 days. Shown are representative images (c) and quantification of colonies (d). […] Shown are representative images (e) and quantification of relative colony sizes (f). Scale bar, 50 μm. Data are presented as mean ± SEM from five independent experiments. p values were calculated using two-tailed, unpaired t tests in this figure. **p < 0.01; ***p < 0.001. Source data are provided as a Source Data file. […]
5. Colony formation assay. Cells were seeded in 6-well plates at 3,000 cells/well […]
every week. […] Colony numbers were calculated with imageJ version

In the case of `Cc1nnn(C)c1-c1cnc2c3c4cnn(C)c4ccc3n([C@H](c3ccccc3)C3CCOCC3)c2c1` [NHWD-870], the “HIF1A mRNA levels” value with HIF1A mRNA (15 nM, 24 h, A375 or A2780 cells) was “decreased HIF1A mRNA levels”. Besides, the “HIF1A mRNA, relative to DMSO (Fig.7g)” value in the test on HIF1A mRNA (A375) is 0.3638 and 0.3259 and 0.3497; with HIF1A mRNA (A2780) it was 0.269 and 0.2453 and 0.2176. Moreover, in the test on ES-2 cells, the “Clone Number (clonogenic assay)” value is 146 and 155 and 103 and 98 and 133.
